Assay results from US4318917A, “Antiinflammatory 2,3-diaryl-5-[2,2,2-trifluoro-1-(trifluoromethyl]ethyl-1H-pyrroles” (E. I. Du Pont de Nemours and Company, priority 1981, dated 1982).

System: adjuvant-induced arthritis in rats
Test: Established Adjuvant-Induced Arthritis in Rats (paw volume)
Assay type: in vivo, rat (Charles River Lewis male rats)
Details: oral gavage, 7 daily doses; for ED50: Rattus norvegicus, uninjected left hind paw, established adjuvant arthritis, read-out: Adjuvant Arthritis ED50 (ED50% decrease from control paw volume)
Procedure: A procedure for detecting and comparing the antiinflammatory activity of compounds in this series and standard drugs for which there is a good correlation with human efficacy is the adjuvant-induced arthritis test in rats.
The test procedure employed for determining antiinflammatory activity is described below.
Established Adjuvant-Induced Arthritis in Rats
Charles River Lewis male rats (130-150 grams) are injected subcutaneously in plantar area of the right hind paw with 0.1 ml of adjuvant (Difco heat-killed, lyophilized Mycobacterium butyricum suspended in mineral oil 5 mg/ml). 20 Non-arthritic controls are injected with mineral oil. The animals are held for 2 weeks to allow development of arthritis. Paw volumes (uninjected, left hind paw) are measured and the adjuvant injected rats are culled and distributed to treatment groups of 10 of equal disease severity. Non-arthritic controls are distributed to 2 groups of 10. The rats are given oral doses of compound or PVA-Acacia (Polyvinyl Alcohol 1%, Gum Acacia, U.S.P. 5%, Methylparaben 0.5%) (10 ml/kg) by gavage on that day and on the 6 following days. One day after the last dose the paw volumes (uninjected, left hind paw) are measured using a Ugo Basile Volume Differential Meter Model 7101. [formula]
% Decrease from Control Mean Paw Volume.
Dose-response regression lines of the % decrease are plotted on semi-log paper by visual fit and the ED50% decrease from control paw volume is determined by inspection.

With `FC(F)(F)C(c1cc(-c2ccccc2)c(-c2ccccc2)[nH]1)C(F)(F)F` [Example 1, 2,3-Diphenyl-5-[2,2,2-trifluoro-1-(trifluoromethyl)-ethyl]-1H-pyrrole] the ED50 was 11 mg/kg.
`Fc1ccc(-c2cc(C(C(F)(F)F)C(F)(F)F)[nH]c2-c2ccc(F)cc2)cc1` [Example 2, 2,3-Bis(4-fluorophenyl)-5-[2,2,2-trifluoro-1-(trifluoromethyl)ethyl]-1H-pyrrole] gave an ED50 of 4 mg/kg.
In the case of `FC(F)(F)C(c1cc(-c2ccc(Cl)cc2)c(-c2ccc(Cl)cc2)[nH]1)C(F)(F)F` [Example 3], the ED50 is reported as 15 mg/kg.
For `Fc1ccc(-c2cc(C(C(F)(F)F)C(F)(F)F)[nH]c2-c2ccc(Br)cc2)cc1` [Example 4], the ED50 was 3.9 mg/kg.
In the case of `Fc1ccc(-c2cc(C(C(F)(F)F)C(F)(F)F)[nH]c2-c2cccnc2)cc1` [Example 5], the “percent reduction in paw volume at the indicated dose” value (at 5 mg/kg) is reported as 0%.
Molecule `CSc1ccc(-c2[nH]c(C(C(F)(F)F)C(F)(F)F)cc2-c2ccc(F)cc2)cc1` [Example 6] has an ED50 of 2.5 mg/kg.
`Fc1ccc(C2=CC(=C(C(F)(F)F)C(F)(F)F)N=C2c2ccc(F)cc2)cc1` [Example 17, 4,5-Bis(4-fluorophenyl)-2-[2,2,2-trifluoro-1-(trifluoromethyl)ethylidene]-2H-pyrrole] showed an ED50 of 33 mg/kg.
With `Fc1ccc(C2=CC(=C(C(F)(F)F)C(F)(F)F)N=C2c2ccc(Br)cc2)cc1` [Example 18, 5-(4-bromophenyl)-4-(4-fluorophenyl)-2-[2,2,2-trifluoro-1-(trifluoromethyl)ethylidene]-2H-pyrrole] the “percent reduction in paw volume at the indicated dose” value (at 25 mg/kg) was 16%.
